Measured values from BindingDB's records for doi:10.1021/jm000022w (Cor Therapeutics, 2000).
Positions of bridges follow the written chain, without caps; N, C: chain ends. Non-standard residues stand in square brackets, D forms with d. Residues, ends and D or L forms follow the SMILES beside them. ξ: configuration not given here. Phe(4-CH2NH2) = NCc1ccc(C[C@H](N)C(=O)O)cc1; Thz(5,5-Me2) = CC1(C)SCN[C@@H]1C(=O)O; NMeR = CN[C@@H](CCCNC(=N)N)C(=O)O; hArg = N=C(N)NCCCC[C@H](N)C(=O)O; ξR = N=C(N)NCCCC(N)C(=O)O; Mpa = O=C(O)CCS

Legend:
[1] = Inhibition of platelet aggregation
[2] = Inhibition of collagen-induced platelet aggregation
[3] = Inhibition of human gel filtered platelet aggregation induced by ADP
[4] = Inhibition of ADP-induced platelet aggregation in human platelet rich plasma
[5] = Inhibition of human platelet aggregation
[6] = Inhibition of canine platelet aggregation
[7] = Inhibition of alpha IIb beta-3 integrin mediated platelet aggregation
[8] = Inhibition canine platelet aggregation in platelet rich plasma (PRP)
[9] = Inhibition of human platelet aggregation in platelet rich plasma
[10] = Inhibition of human platelet aggregation collected with sodium citrate as anticoagulant
[11] = Inhibition of alpha IIb beta-3 integrin mediated platelet aggregation; remark: listed apart in the source
[12] = Inhibition of ADP-induced platelet aggregation
[13] = Inhibition of human platelet aggregation; remark: listed apart in the source
[14] = Inhibition of human gel filtered platelet aggregation mediated by 10 uM ADP
[15] = Inhibition of ADP-induced platelet aggregation; remark: listed apart in the source
[16] = Inhibition of human platelet aggregation in platelet rich plasma (PRP)
[17] = inhibition of platelet aggregation in human platelet rich plasma

COc1ccc(C[C@H](NC(=O)[C@H](CC(=O)O)NC(=O)CNC(=O)[C@@H](N)CCCNC(=N)N)C(N)=O)cc1 [SC-46749] (H-RGDY(Me)-NH2)
IC50 [1]: 32000 nM

CCOC(=O)CCNC(=O)N[C@H]1CCN(c2ccc(C(=N)N)cc2)C1=O [SC-57099B]
IC50 [2]: 130 nM | IC50 [3]: 80 nM

CN(C(=O)c1ccc2c(c1)CN(CCc1ccccc1)C(=O)C(CC(=O)O)N2)c1ccc(C(=N)N)cc1 (stereo not given) [{7-[(4-Carbamimidoyl-phenyl)-methyl-carbamoyl]-3-oxo-4-phenethyl-2,3,4,5-tetrahydro-1H-benzo[e][1,4]diazepin-2-yl}-acetic acid]
IC50 [4]: 160 nM

CC(=O)NC(CCCNC(=N)N)C(=O)NCC(=O)N[C@@H](CC(=O)O)C(=O)N[C@H](C(N)=O)C(C)C (stereo not given in full) [3-[2-(2-Acetylamino-5-guanidino-pentanoylamino)-acetylamino]-N-(1-carbamoyl-2-methyl-propyl)-succinamic acid] (Ac-[ξR]GDV-NH2)
IC50 [1]: 32000 nM

CC(=O)N[C@H]1CSSC[C@@H](C(N)=O)NC(=O)[C@H](CC(=O)O)NC(=O)CNC(=O)[C@H](CCCNC(=N)N)N(C)C1=O [[16-Acetylamino-4-carbamoyl-13-(3-guanidino-propyl)-14-methyl-6,9,12,15-tetraoxo-1,2-dithia-5,8,11,14-tetraaza-cycloheptadec-7-yl]-acetic acid (SK&F 106760)] (Ac-C[NMeR]GDC-NH2; disulfide 1-5)
IC50 [5]: 230 nM | IC50 [6]: 90 nM

C[C@H](CC(=O)O)NC(=O)CN1CCC[C@@H](CCC2CCNCC2)C1=O [3-{2-[2-Oxo-3-(2-piperidin-4-yl-ethyl)-piperidin-1-yl]-acetylamino}-butyric acid (L-734217)]
IC50 [7]: 23 nM

N=C(N)c1ccc(CCCCC(=O)N[C@@H](CC(=O)O)C(=O)N[C@@H](Cc2ccccc2)C(=O)O)cc1 [SC-52012]
IC50 [8]: 72 nM

O=C(NC[C@H](NS(=O)(=O)c1ccccc1)C(=O)O)c1cnc(N2CCN(C3CCNCC3)CC2)s1 [2-Benzenesulfonylamino-3-{[2-(4-piperidin-4-yl-piperazin-1-yl)-thiazole-5-carbonyl]-amino}-propionic acid (UR-12947)]
IC50 [9]: 3.5 nM

N=C(N)NCCCC[C@@H]1NC(=O)CCSSC[C@@H](C(N)=O)NC(=O)[C@@H]2CCCN2C(=O)[C@H](Cc2c[nH]c3ccccc23)NC(=O)[C@H](CC(=O)O)NC(=O)CNC1=O ([Mpa][hArg]GDWPC-NH2; disulfide 1-7)
IC50 [10]: 140 nM

CCOC(=O)CC1CCN(C(=O)C(C)(C)[C@@H](CC)NC(=O)c2ccc(C(=N)N3CCSC3)cc2F)CC1 [(1-{3-[2-Fluoro-4-(imino-thiazolidin-3-yl-methyl)-benzoylamino]-2,2-dimethyl-pentanoyl}-piperidin-4-yl)-acetic acid ethyl ester(NSL-96184)]
IC50 [11]: 45 nM

CCCCOC(=O)N[C@@H](CNC(=O)C1CC(OCc2ccc(C(=N)N)cc2)=NO1)C(=O)OC (stereo not given in full) [2-Butoxycarbonylamino-3-{[3-(4-carbamimidoyl-benzyloxy)-4,5-dihydro-isoxazole-5-carbonyl]-amino}-propionic acid methyl ester(XU 065)]
IC50 [12]: 50 nM

CC(C)CC(=O)N[C@@H](CCCCNC(=O)c1ccc(C(=N)N)cc1)CC(=O)O [7-(4-Carbamimidoyl-benzoylamino)-3-(3-methyl-butyrylamino)-heptanoic acid (GPI 562)]
IC50 [13]: 15 nM

CC(=O)N[C@H]1CSSC[C@@H](C(=O)O)NC(=O)[C@H](CC(=O)O)NC(=O)CNC(=O)[C@H](Cc2ccc(CN)cc2)NC(=O)[C@H]2N(CSC2(C)C)C(=O)[C@H](CC(N)=O)NC1=O [8-Acetylamino-22-(4-aminomethyl-benzyl)-5-carbamoylmethyl-16-carboxymethyl-1,1-dimethyl-4,7,15,18,21,24-hexaoxo-icosahydro-2,10,11-trithia-3a,6,14,17,20,23-hexaaza-cyclopentacyclotricosene-13-carboxylic acid (MK-0852)] (Ac-CN[Thz(5,5-Me2)][Phe(4-CH2NH2)]GDC-OH; disulfide 1-7)
IC50 [14]: 26 nM

CN(C(=O)c1ccc2c(c1)NC(CC(=O)O)C(=O)N(CCc1ccccc1)C2)c1ccc(C(=N)N)cc1 (stereo not given) [{8-[(4-Carbamimidoyl-phenyl)-methyl-carbamoyl]-3-oxo-4-phenethyl-2,3,4,5-tetrahydro-1H-benzo[e][1,4]diazepin-2-yl}-acetic acid(SB-208651)]
IC50 [4]: 65 nM

N=C(N)c1ccc(C(=O)Nc2ccc3c(c2)C(=O)N(CCC(=O)O)Cc2nnnn2-3)cc1 [3-[8-(4-Carbamimidoyl-benzoylamino)-6-oxo-4H,6H-1,2,3,5,10b-pentaaza-benzo[e]azulen-5-yl]-propionic acid(G7453)]
IC50 [15]: 54 nM

O=C(CCCC1CCNCC1)NCC(=O)N[C@H](CCc1c[nH]c2ccccc12)C(=O)O [L-703014]
IC50 [16]: 94 nM

C[C@@]1(c2ccc(C(=N)N)cc2)NC(=O)N(CC(=O)NC(CC(=O)O)c2ccccc2)C1=O (stereo not given in full) [3-{2-[4-(4-Carbamimidoyl-phenyl)-4-methyl-2,5-dioxo-imidazolidin-1-yl]-acetylamino}-3-phenyl-propionic acid(S1197)]
IC50 [3]: 20 nM

CCOC(=O)COC1CCN(C(=O)[C@H](C)NC(=O)c2ccc(C(=N)NO)cc2)CC1 [((S)-1-{2-[4-(N-Hydroxycarbamimidoyl)-benzoylamino]-propionyl}-piperidin-4-yloxy)-acetic acid ethyl ester]
IC50 [17]: 38 nM
